Data: patent US7238693B2, “Aryl carbamate derivatives, preparation and use thereof” (Cerep, priority 2001, dated 2007)
Where two headings read alike, the source gives them in different places.

What was measured:
Type in all cases: binding
human isoform h5-HT4e = biological target: T1, human isoform h5-HT4e (Homo sapiens, UniProt Q13639); assay: displacement of radioligand [3H]-GR113808 in rat glial cells expressing h5-HT4e
T1 construct: expressed in transfected cells; membrane preparation
Description: The compounds of the invention were evaluated by measuring their affinity constant Ki determined by displacing a radioligand [^3H]-GR113808 in rat glial cells stably expressing the human isoform h5-HT4e.
Confluent glial cells were washed twice in PBS and centrifuged at 300 g for 5 min. The pellet was used immediately and the cells were suspended in 10 volumes of HEPES (50 mM, pH 7.4, 4° C.) then homogenized with a teflon homogenizer and centrifuged at 40,000 g for 20 min. The pellet was resuspended in 15 volumes of HEPES. Displacement experiments were carried out in 500 μl of buffer (50 mM HEPES) containing 20 μl of radioligand [^3H]-GR113808 at a concentration of 0.2 nM for isoform h5-HT4e or at a concentration equal to half of the Kd of the radioligand for the other isoforms expressed in COS cells, 20 μl of competitor ligand at seven different concentrations and 50 μl of membrane preparation (100–200 μg of protein determined by the Bradford method). Binding was carried out at 25° C. for 30 min and the reaction was stopped by rapid vacuum filtration (Brandel Harvester) on Whatman GF/B filters preincubated in 0.1% PEI solution to minimize nonspecific binding.
Membrane-bound radioactivity is retained on the filter, which was cut and washed with cold buffer (50 mM Tris-HCl, pH 7.4) and incubated overnight in 4 ml of scintillation liquid. Radioactivity was measured in a liquid scintillation counter (Beckman LS 6500C). Binding data were obtained by computer assisted linear regression (Graph Prism Program, Graph Pad Software. Inc., San Diego, Calif.)

5-HT6 receptor = 5-HT6 receptor (Homo sapiens, UniProt P50406); assay: selectivity, 5-HT6 receptor; settings: up to a concentration of 1 μM
Chain of 5-HT6 receptor (P50406 whole entry): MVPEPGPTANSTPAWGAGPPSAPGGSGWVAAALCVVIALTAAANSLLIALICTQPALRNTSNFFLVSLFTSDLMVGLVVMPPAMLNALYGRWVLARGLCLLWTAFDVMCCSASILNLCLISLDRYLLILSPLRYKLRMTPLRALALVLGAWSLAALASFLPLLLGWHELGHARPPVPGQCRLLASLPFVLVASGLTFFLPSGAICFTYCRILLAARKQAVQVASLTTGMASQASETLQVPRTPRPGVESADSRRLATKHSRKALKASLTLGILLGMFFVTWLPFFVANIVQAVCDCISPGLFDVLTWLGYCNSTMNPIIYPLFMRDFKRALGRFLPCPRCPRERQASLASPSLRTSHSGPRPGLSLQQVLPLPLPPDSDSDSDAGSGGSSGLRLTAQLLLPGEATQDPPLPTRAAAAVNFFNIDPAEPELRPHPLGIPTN

5-HT2C receptor = biological target: T2, 5-HT2C receptor (Homo sapiens, UniProt P28335); assay: selectivity, 5-HT2C receptor; settings: up to a concentration of 1 μM
T2 sequence (P28335 33-458): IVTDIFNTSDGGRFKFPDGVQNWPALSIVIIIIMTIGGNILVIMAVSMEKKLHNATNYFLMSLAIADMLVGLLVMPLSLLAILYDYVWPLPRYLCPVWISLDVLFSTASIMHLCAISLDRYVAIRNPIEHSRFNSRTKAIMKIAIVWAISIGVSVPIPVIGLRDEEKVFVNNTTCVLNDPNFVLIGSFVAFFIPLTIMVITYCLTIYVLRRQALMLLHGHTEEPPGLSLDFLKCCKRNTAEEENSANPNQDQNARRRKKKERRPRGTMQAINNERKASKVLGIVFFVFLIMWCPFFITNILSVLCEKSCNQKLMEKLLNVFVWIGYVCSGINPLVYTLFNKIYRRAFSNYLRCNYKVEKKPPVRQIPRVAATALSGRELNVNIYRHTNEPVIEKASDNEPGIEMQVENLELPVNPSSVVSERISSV

5-HT2A receptor = 5-HT2A receptor (Homo sapiens, UniProt P28223); assay: selectivity, 5-HT2A receptor; settings: up to a concentration of 1 μM
Chain of 5-HT2A receptor (P28223 whole entry): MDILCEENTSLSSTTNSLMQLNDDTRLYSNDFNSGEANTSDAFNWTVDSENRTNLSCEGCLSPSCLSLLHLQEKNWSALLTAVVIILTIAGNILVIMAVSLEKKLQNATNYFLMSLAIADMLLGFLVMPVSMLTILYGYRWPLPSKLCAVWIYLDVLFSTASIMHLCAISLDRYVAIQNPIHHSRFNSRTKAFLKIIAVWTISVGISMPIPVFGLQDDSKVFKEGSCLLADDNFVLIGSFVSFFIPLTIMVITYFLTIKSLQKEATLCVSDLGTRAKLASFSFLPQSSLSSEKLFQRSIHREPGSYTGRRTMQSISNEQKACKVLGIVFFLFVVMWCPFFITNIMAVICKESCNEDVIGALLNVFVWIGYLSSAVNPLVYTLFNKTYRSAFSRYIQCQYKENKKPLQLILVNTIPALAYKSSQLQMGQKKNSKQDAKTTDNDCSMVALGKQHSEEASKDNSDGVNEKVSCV

5-HT1A receptor = biological target: T3, 5-HT1A receptor (Homo sapiens, UniProt P08908); assay: selectivity, 5-HT1A receptor; settings: up to a concentration of 1 μM
T3 sequence (P08908 1-422): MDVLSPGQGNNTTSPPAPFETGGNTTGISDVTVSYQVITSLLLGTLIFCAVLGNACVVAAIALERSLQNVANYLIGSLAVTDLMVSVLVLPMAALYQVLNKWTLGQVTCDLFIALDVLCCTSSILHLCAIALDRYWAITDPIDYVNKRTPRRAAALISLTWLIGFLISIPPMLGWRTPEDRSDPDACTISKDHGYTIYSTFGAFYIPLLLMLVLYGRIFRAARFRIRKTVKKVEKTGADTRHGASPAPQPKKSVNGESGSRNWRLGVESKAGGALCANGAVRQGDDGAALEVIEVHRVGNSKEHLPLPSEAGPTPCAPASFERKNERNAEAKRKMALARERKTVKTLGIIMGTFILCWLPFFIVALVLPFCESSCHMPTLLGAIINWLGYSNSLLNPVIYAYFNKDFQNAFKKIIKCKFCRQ

5-HT3 receptor = biological target: T4, 5-HT3 receptor (Homo sapiens, UniProt P46098); assay: selectivity, 5-HT3 receptor; settings: up to a concentration of 1 μM
T4 sequence (P46098 24-478): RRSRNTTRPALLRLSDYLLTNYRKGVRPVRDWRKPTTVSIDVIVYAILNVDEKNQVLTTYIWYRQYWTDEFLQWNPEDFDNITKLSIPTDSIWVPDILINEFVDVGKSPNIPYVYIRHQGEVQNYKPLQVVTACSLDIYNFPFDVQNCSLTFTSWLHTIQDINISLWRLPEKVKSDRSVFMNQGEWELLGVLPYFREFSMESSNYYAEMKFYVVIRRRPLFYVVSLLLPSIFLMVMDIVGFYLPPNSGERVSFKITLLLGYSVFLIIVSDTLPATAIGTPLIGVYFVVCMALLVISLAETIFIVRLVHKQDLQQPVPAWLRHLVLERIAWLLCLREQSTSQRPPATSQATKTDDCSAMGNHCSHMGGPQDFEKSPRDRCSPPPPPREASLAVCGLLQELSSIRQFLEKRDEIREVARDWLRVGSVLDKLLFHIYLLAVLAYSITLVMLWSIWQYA

5-HT1B receptor = 5-HT1B receptor (Homo sapiens, UniProt P28222); assay: selectivity, 5-HT1B receptor; settings: up to a concentration of 1 μM
Chain of 5-HT1B receptor (P28222 whole entry): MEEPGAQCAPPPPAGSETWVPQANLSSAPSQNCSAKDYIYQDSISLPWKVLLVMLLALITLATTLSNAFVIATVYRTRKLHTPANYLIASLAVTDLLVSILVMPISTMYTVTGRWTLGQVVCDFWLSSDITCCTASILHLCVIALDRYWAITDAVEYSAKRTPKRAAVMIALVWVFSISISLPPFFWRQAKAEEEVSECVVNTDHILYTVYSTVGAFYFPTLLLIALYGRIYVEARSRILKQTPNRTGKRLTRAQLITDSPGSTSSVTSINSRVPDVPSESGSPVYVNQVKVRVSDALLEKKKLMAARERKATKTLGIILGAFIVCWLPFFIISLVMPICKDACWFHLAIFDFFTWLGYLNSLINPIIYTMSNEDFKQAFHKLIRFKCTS

5-HT5A receptor = 5-HT5A receptor (Homo sapiens, UniProt P47898); assay: selectivity, 5-HT5A receptor; settings: up to a concentration of 1 μM
Chain of 5-HT5A receptor (P47898 whole entry): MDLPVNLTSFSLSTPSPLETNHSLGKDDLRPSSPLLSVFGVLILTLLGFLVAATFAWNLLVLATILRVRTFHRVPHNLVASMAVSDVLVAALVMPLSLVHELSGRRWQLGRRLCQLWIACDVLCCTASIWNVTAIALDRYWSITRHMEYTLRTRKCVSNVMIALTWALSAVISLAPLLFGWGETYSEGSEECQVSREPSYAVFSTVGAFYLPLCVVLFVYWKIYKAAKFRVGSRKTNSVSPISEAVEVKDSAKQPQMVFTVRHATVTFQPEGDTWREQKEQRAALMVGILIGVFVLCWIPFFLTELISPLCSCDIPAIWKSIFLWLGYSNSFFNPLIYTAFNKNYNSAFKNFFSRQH

5-HT7 receptor = 5-HT7 receptor (Homo sapiens, UniProt P34969); assay: selectivity, 5-HT7 receptor; settings: up to a concentration of 1 μM
Chain of 5-HT7 receptor (P34969 whole entry): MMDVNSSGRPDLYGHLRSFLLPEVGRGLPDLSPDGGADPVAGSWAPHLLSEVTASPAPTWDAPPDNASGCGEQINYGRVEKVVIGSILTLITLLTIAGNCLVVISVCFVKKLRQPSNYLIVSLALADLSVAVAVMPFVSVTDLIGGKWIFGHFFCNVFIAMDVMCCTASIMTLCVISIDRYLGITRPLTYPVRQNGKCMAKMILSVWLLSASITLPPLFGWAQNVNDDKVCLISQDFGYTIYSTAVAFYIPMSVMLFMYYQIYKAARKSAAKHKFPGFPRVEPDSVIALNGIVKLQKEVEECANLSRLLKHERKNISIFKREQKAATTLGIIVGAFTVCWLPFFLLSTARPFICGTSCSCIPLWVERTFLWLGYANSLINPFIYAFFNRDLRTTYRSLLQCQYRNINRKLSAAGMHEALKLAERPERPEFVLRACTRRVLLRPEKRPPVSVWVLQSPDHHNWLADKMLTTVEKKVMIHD

[1] = [3H]-GR113808 0.2 nM, membranes of rat glial cells expressing h5-HT4e, 25° C., 30 min, read-out: Ki

T1 sequence (Q13639 1-378 isoform Q13639-5): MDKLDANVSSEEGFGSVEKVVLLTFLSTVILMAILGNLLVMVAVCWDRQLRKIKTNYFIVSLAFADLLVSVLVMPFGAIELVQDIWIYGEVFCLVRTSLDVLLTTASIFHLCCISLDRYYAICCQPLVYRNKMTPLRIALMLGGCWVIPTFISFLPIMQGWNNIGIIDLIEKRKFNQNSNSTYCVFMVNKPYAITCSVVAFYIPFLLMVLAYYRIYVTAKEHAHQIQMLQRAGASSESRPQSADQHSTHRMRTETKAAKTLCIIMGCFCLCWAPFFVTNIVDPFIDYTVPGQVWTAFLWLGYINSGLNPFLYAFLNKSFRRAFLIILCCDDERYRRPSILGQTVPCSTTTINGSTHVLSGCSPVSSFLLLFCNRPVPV

SMILES	Ki (human isoform h5-HT4e; [1])	other results
CCOc1ccccc1NC(=O)OCCN1CCN(c2cccc(C)c2)CC1 [Compound 21, 2-[4-(3-methylphenyl)piperazino]ethyl-N-(2-ethoxyphenyl)carbamate]	20.2 nM	
CCOc1ccccc1NC(=O)OCCCN1CCN(c2ncccn2)CC1 [Compound 44, 3-[4-(2-pyrimidinyl)piperazino]propyl-N-(2-ethoxyphenyl)carbamate]	11.8 nM	
COc1cccc(N2CCN(CCOC(=O)Nc3ccccc3OC)CC2)c1 [Compound 51, 2-[4-(3-methoxyphenyl)piperazino]ethyl-N-(2-methoxyphenyl)carbamate]	12.7 nM	
COc1ccccc1NC(=O)OCCN1CCN(c2ccncc2)CC1 [Compound 63, 2-[4-(4-pyridinyl)piperazino]ethyl-N-(2-methoxyphenyl)carbamate]		activity for the 5-HT6 receptor (5-HT6 receptor): no activity; activity for the 5-HT2C receptor (5-HT2C receptor): no activity; activity for the 5-HT2A receptor (5-HT2A receptor): no activity; activity for the 5-HT1A receptor (5-HT1A receptor): no activity; activity for the 5-HT3 receptor (5-HT3 receptor): no activity; activity for the 5-HT1B receptor (5-HT1B receptor): no activity; activity for the 5-HT5A receptor (5-HT5A receptor): no activity; activity for the 5-HT7 receptor (5-HT7 receptor): no activity; Ki (human isoform h5-HT4e; as stated in the description, read-out: Ki for the 5-HT4 receptor): 5 nM
COc1ccccc1NC(=O)OCCN1CCN(c2cccnn2)CC1 [Compound 64, 2-[4-(3-pyridazinyl)piperazino]ethyl-N-(2-methoxyphenyl)carbamate]	10.6 nM	

Continued, in another order:

Ki (human isoform h5-HT4e; [1])	SMILES	other results
4.5 nM	CCOc1ccccc1NC(=O)OCCN1CCN(c2ccccn2)CC1 [Compound 24, 2-[4-(2-pyridinyl)piperazino]ethyl-N-(2-ethoxyphenyl)carbamate]	
9.9 nM	CCOc1ccccc1NC(=O)OCCCN1CCN(c2ccccn2)CC1 [Compound 40, 3-[4-(2-pyridinyl)piperazino]propyl-N-(2-ethoxyphenyl)carbamate]	
3.6 nM	CCOc1ccccc1NC(=O)OCCCN1CCN(c2cccnn2)CC1 [Compound 42, 3-[4-(3-pyridazinyl)piperazino]propyl-N-(2-ethoxyphenyl)carbamate]	
10.4 nM	CCOc1ccccc1NC(=O)OCCCN1CCN(c2ccncn2)CC1 [Compound 43, 3-[4-(4-pyrimidinyl)piperazino]propyl-N-(2-ethoxyphenyl)carbamate]	
3.9 nM	CCOc1ccccc1NC(=O)OCCCN1CCN(c2ccc(C)nn2)CC1 [Compound 48, 3-[4-(6-methyl-3-pyridazinyl)piperazino]propyl-N-(2-ethoxyphenyl)carbamate]	
9.3 nM	COc1ccccc1NC(=O)OCCN1CCN(c2ccccn2)CC1 [Compound 62, 2-[4-(2-pyridinyl)piperazino]ethyl-N-(2-methoxyphenyl)carbamate]	
10.4 nM	COc1ccccc1NC(=O)OCCN1CCN(c2ncccn2)CC1 [Compound 65, 2-[4-(2-pyrimidinyl)piperazino]ethyl-N-(2-methoxyphenyl)carbamate]	
10 nM	COc1ccccc1NC(=O)OCCCN1CCN(c2ccncc2)CC1 [Compound 83, 3-[4-(4-pyridinyl)piperazino]propyl-N-(2-methoxyphenyl)carbamate]	
